Reference: patent US20240391912A1, “MORPHIC FORMS OF CFT7455 AND METHODS OF MANUFACTURE THEREOF” (C4 THERAPEUTICS, INC., priority 2022, published 2024)
≈ marks a conversion by molar mass, not a printed value.

Experiments:
[1] = Scale-up experiment (200 mg) and characterization of new polymorphs of Compound 1; assay type: physicochemical; details: for X-ray diffraction: 3-40° (2 theta), XRPD method 1; for Thermogravimetry weight loss / water corresponding to TGA weight loss: TGA
Description: Scale-up 1: About 200 mg of Compound 1 Form I was dissolved in 10 mL THF/Water (95:5, v:v) at 40° C. […] Compound 1 Form IV was obtained. It was subjected to characterization.
Scale-up 2: About 200 mg of Compound 1 Form I was dissolved in 10 mL THF/Water (95:5, v:v) at 40° C. […] It was subjected to characterization.

[2] = Competitive equilibration experiment of Compound 1 Form I and Form IV for 1 week; assay type: physicochemical; details: for form obtained in competitive equilibration: 25° C.; for form obtained in competitive equilibration / XRPD: 1 week
Description: About 10 mg of Compound 1 Form I and 10 mg Compound 1 Form IV were added to 0.8 mL saturated solution in selected solvent. Obtained suspensions were stirred at 400 rpm and 25° C. for 1 week. Solids obtained were separated by filtration and characterized by XRPD.

[3] = Approximate solubility of Compound 5 polymorphs in EtOH:DCM (v:v=1:4); assay type: physicochemical; details: EtOH:DCM (v:v = 1:4), 25° C.
Description: Four polymorphs (Form V, Form VI, Form VII and Form VIII) were weighed respectively and a suitable amount of solvent mixture EtOH:DCM (v:v=1:4) was added. The obtained samples were stirred at a rate of 400 rpm at 25° C.

[4] = Characterization of polymorphs and pseudo-polymorphs of Compound 5; assay type: physicochemical
[5] = Bulk stability of Compound 5 Form VI and Form VIII at 25° C./60% RH, open container, 1 week (XRPD, HPLC, color); assay type: physicochemical; details: listed as Form VIII
Description: Compound 5 Form VI and Form VIII were placed at 25° C./60% RH in an open container over 1 week. Samples after the stress were characterized by XRPD and HPLC and inspected for color change.

[6] = Solubility of Compound 5 Form VI and Form VIII at 25° C., equilibration for 24 hours (HPLC; XRPD of residual solids); assay type: physicochemical
Description: 11 mg (for 20 mg/mL target concentration) or 22 mg (for 50-60 mg/mL target concentration) of Compound 5 Form VI and Form VIII (equivalent to 10 mg or 20 mg of anhydrate free base) was weighed into a 4 mL glass vial, respectively. Up to 0.5 mL of potential eluent medium was added. The obtained suspensions/solutions were stirred at 25° C. at 400 rpm for 24 hours and then centrifuged at 25° C. at 14,000 rpm for 5 minutes. The residual solids were characterized by XRPD to determine the physical form. The supernatants (0.1 mL) were evaporated at about 22-25° C./30-60% RH.

[7] = tested on: OCI-LY10 human DLBCL intracranial xenografts; assay: OCI-LY10 human DLBCL intracranial xenograft study, survival; details: for Median Survival (Days), ± SEM / Survival time extension (%): Rituximab, i.v., QW
Description: Agents were tested in the OCI-LY10 human DLBCL intracranial model. […] Rituximab was administered from day 1 via i.v. once per week. Rituximab was dosed at 10 and 30 mg/kg. Individual mouse was euthanized once its body weight loss was over 20%.
The cells growing in an exponential growth phase were harvested and counted for tumor inoculation.
99 CB17 SCID mice were inoculated by intracranial injection with OCI-LY10 cells (1×10^6) for tumor development.
Tumor inoculation: Intraperitoneally injected avertin at dosage of 240 mg/kg to anaesthetize the CB17 SCID mice. Fixed the head of the anaesthetized mice to the brain solid positioner, sterilized the head skin with 70% alcohol. […] Punched a hole about 2 mm right of the anterior fontanel and 1 mm ahead the coronal on the skull with a 25 G needle. Cell suspensions were mixed and certain amount was sucked into the 5 μL injector slowly to avoid bubble formation. The cells were swapped around the needle with alcohol to avoid extracranial tumor genesis. The needle was stuck vertically into the formed hold and 5 μL of cell suspension containing 1×10^6 OCI-LY10 cells was slowly injected for over 1 minute. The injector was then held for another 1 minute and then pulled back to decrease the drainage of the cells suspension. The skin was closed with tweezers and then sewed. Meloxicam was then injected 30 min after the surgery at dosage of 5 mg/kg to relieve the pain. The animals were kept under monitoring until they were awake.
Animals were grouped for treatment on day 7 after tumor inoculation.
At the time of routine monitoring, the animals were daily checked for any effects of tumor growth and treatments on normal behavior such as mobility, food and water consumption (by looking only), body weight gain/loss (body weights were measured twice weekly), eye/hair matting and any other abnormal effect as stated in the protocol. Death and observed clinical signs were recorded on the basis of the numbers of animals within each subset.

[8] = Crystallization of Compound 1 at room temperature by slow evaporation (XRPD); assay type: physicochemical; details: 25° C./92% RH for 2 days
Description: About 20 mg of Compound 1 Form I (free form) was dissolved and filtered by 0.45 μm nylon filter. Obtained solutions were evaporated slowly at ambient condition. Solid residues were examined for their polymorphic form.

[9] = THF/water (v:v = 1:2.5), 25° C., 24 hours, target conc. 20 mg/mL, listed as Form VIII

O=C1CC[C@H](N2C(=O)c3cccc4c(Cc5ccc(CN6CCOCC6)cc5)ccc2c34)C(=O)N1 [Compound 1 Form IV, (S)-3-(6-(4-(morpholinomethyl)benzyl)-2-oxobenzo[cd]indol-1(2H)-yl)piperidine-2,6-dione]
X-ray diffraction ([1]; listed as Form IV): Crystalline
Thermogravimetry weight loss ([1]; 10° C./min, at 105° C.): About 1.3%
water corresponding to TGA weight loss ([1]; 10° C./min, listed as Form IV): 105 °C (0.4 equiv.
stability of the form ([2]; THF/water systems with high water activity): stable

O=C1CCC(N2C(=O)c3cccc4c(Cc5ccc(CN6CCOCC6)cc5)ccc2c34)C(=O)N1 (racemic) [Compound 5 Form VII]
Approximate solubility (visual appearance) ([3]; concentration 10 mg/mL, listed as Form VII): Suspension
Approximate solubility (visual appearance) ([3]; concentration 20 mg/mL, listed as Form VII): Suspension
Residual solvent (by 1H-NMR): NMP ([4]; 2 unknown peaks): 1.6 equiv. NMP;

O=C1CC[C@H](N2C(=O)c3cccc4c(Cc5ccc(CN6CCOCC6)cc5)ccc2c34)C(=O)N1 [Form I and Form IV]
form obtained in competitive equilibration ([2]; DMSO/water system, all selected water activity mixtures): physical mixtures of Form I and Form IV
form obtained in competitive equilibration ([2]; THF/water system, a.w.≤0.3): Form I (anhydrate)
form obtained in competitive equilibration ([2]; THF/water system, water activity (a.w.)≥0.6): Form IV (hydrate)

O=C1CCC(N2C(=O)c3cccc4c(Cc5ccc(CN6CCOCC6)cc5)ccc2c34)C(=O)N1 (racemic) [Compound 5 Form VIII]
Approximate solubility (visual appearance) ([3]; concentration 10 mg/mL, listed as Form VIII): Few solids
Approximate solubility (visual appearance) ([3]; concentration 20 mg/mL, listed as Form VIII): Few solids
bulk stability, physical (form) [5]: converted to Form V
Bulk (HPLC) Purity ([5]; solid state, initial purity 93.1% (Form VI), 95.6% (Form VIII)): 95.6%
Bulk (XRPD) ([5]; solid state): Form V
solubility ([6]; EtOH/DCM (v:v = 1:4), 25° C., 24 hours, target conc. 50-60 mg/mL, LOQ 0.8 μg/mL, listed as Form VIII): 39 mg/mL (≈ 83.1 mM)
physical form after solubility test ([6]; EtOH:DCM (v:v=1:4), 25° C., 24 h): Physical mixture of Form V and Form VI
XRPD of residual solids ([6]; MeOH/DCM (v:v = 1:2), 25° C., 24 hours, target conc. 50-60 mg/mL): Form V
physical form after solubility test ([6]; MeOH:DCM (v:v=1:2) and THF:water (v:v=1:2.5), 25° C., 24 h): converted to Form V
solubility ([6]; THF/IPA (v:v = 1:2), 25° C., 24 hours, target conc. 20 mg/mL, listed as Form VIII): 1 mg/mL (≈ 2.13 mM)
XRPD of residual solids [6, 9]: Form V
solubility [6, 9]: 0.5 mg/mL (≈ 1.06 mM)
physical form after solubility test ([6]; THF:2-propanol (v:v=1:2) and THF:Heptane (v:v=1:2), 25° C., 24 h): converted to Form VI
solubility ([6]; in EtOH/DCM (v:v=1:4), about 25° C., 24 h, listed as Form VIII): ~39 mg/mL (≈ 83.1 mM)
solubility ([6]; in MeOH:DCM (v:v=1:2) and EtOH:DCM (v:v=1:4), 25° C. for 24 h, listed as Form VIII): 30 to 40 mg/mL
Dehydration and evaporation of solvent from (by DSC) ([4]; DSC): about 8° C.;
Enthalpy (by DSC) ([4]; DSC, listed as Form VIII): 105 J/g
Melting onset Tonset (by DSC) ([4]; DSC, listed as Form VIII): Tonset 231.4° C.,
Weight loss (by TGA) ([4]; at 200° C.): 4.7% at 200 °C
Residual ion (by IC): Br− ([4]; listed as Form VIII): Br^−: 0.01 equiv.
Residual ion (by IC): Cl− ([4]; listed as Form VIII): Cl^−: 0.005 equiv.;
Residual ion (by IC): Li+ ([4]; listed as Form VIII): Li^+: 0.04 equiv.;
Residual ion (by IC): Na+ ([4]; listed as Form VIII): Na^+: 0.01 equiv.

O=C1CC[C@H](N2C(=O)c3cccc4c(Cc5ccc(CN6CCOCC6)cc5)ccc2c34)C(=O)N1 [Compound 1 Form III, (S)-3-(6-(4-(morpholinomethyl)benzyl)-2-oxobenzo[cd]indol-1(2H)-yl)piperidine-2,6-dione]
X-ray diffraction ([1]; listed as Form III): Crystalline
Thermogravimetry weight loss ([1]; 10° C./min, at 120° C.): About 5.8%
water corresponding to TGA weight loss ([1]; 10° C./min, listed as Form III): 120 °C (1.5 equiv.

rituximab: CD20 inhibitor; targeted antibody
Median Survival (Days), ± SEM ([7]; 10 mg/kg): 17.00 ± 0.46 days
Survival time extension (%) ([7]; 10 mg/kg): 21.4%
Median Survival (Days), ± SEM ([7]; 30 mg/kg): 16.00 ± 0.94 days
Survival time extension (%) ([7]; 30 mg/kg): 14.3%
extension of survival time ([7]; rituximab 10 mg/kg i.v. once per week, p=0.001): 21.4%
extension of survival time ([7]; rituximab 30 mg/kg i.v. once per week, p=0.085): 14.3%

O=C1CC[C@H](N2C(=O)c3cccc4c(Cc5ccc(CN6CCOCC6)cc5)ccc2c34)C(=O)N1 [Form I + Form IV]
XRPD ([2]; THF/Water (63.9:36.1, v:v), a.w. 1.0, 25° C.): Form IV
XRPD ([2]; THF/Water (86.9:13.1, v:v), a.w. 0.8, 25° C.): Form IV
XRPD ([2]; THF/Water (92.3:7.7, v:v), a.w. 0.6, 25° C.): Form IV
XRPD ([2]; THF/Water (97.0:3.0, v:v), a.w. 0.3, 25° C.): Form I
XRPD ([2]; THF/Water (98.1:1.9, v:v), a.w. 0.2, 25° C.): Form I
XRPD ([2]; THF/Water (99.1:0.9, v:v), a.w. 0.1, 25° C.): Form I

O=C1CC[C@H](N2C(=O)c3cccc4c(Cc5ccc(CN6CCOCC6)cc5)ccc2c34)C(=O)N1 [Compound 1 Form II, (S)-3-(6-(4-(morpholinomethyl)benzyl)-2-oxobenzo[cd]indol-1(2H)-yl)piperidine-2,6-dione]
Notes (form stability under humidity) [8]: No form change at 25° C./92% RH
Stoichiometry: MeOH ([1]; 1H-NMR): 1.0 equiv.
Stoichiometry: DCM ([1]; 1H-NMR, listed as Form II): 0.3% DCM and
X-ray diffraction ([1]; listed as Form II): Crystalline
Form change at 25° C./92% RH ([1]; 25° C./92% RH for 2 days): No form change
DSC: Methanol desolvation ([1]; DSC, 10° C./min): at 103.1 °C
Thermogravimetry weight loss ([1]; 10° C./min, at 125° C.): About 7.1%
